For ten compounds, CC50, melting point and EC50 results are on record in patent US11078193B2 (priority 2014, dated 2021).

Data set [1] can be described thus: ATP based toxicity assay (ATPlite), HepG2 cell line. As to conditions: human, HepG2 cells, ATPlite (ATP levels). The procedure, abridged:
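HepG2 cells exposed to compound, then ATPlite reagent added at 1 volume. Cellular ATP read by luminescence as a viability measure.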
(In general: Cellular ATP, detected with luciferase, serves as a proxy for viable cell number.)

Data set [2] relates to HBV. Kind of data set: anti-HBV activity, HepG2.2.15 stable transfected cell line, HBV DNA from secreted virions by realtime PCR. The class given is cell-based. As to conditions: Hepatitis B virus, 144 h, HepG2.2.15 cells, 6 days of treatment.
Data set [3] deals with HBV. In words: anti HBV activity, HepG2.117 inducibly HBV producing cell line (Tet-off), intracellular HBV DNA by realtime PCR. The class given is cell-based. The following applies: Hepatitis B virus, 72 h, HepG2.117 cells, 3 days of treatment.
The nature of data set [4]: Cytotoxicity, HepG2 cells, Resazurin assay. As to conditions: human. The class given is cell-based.

Compound `C[C@@H](NS(=O)(=O)c1cn(C)c(C(=O)Nc2ccnc(Cl)c2)c1Cl)C(F)(F)F` [Compound 12, 3-Chloro-N-(2-chloropyridin-4-yl)-1-methyl-4-{[(1R)-2,2,2-trifluoro-1-methylethyl]sulfamoyl}-1H-pyrrole-2-carboxamide] yielded a melting point of 214.8 °C. This compound yielded a CC50 at 4 days in data set [1] above 25000 nM. Further, the EC50 in data set [2] stood at 10 nM. The EC50 in data set [3] was determined as 20 nM. In data set [4], this compound returned a CC50 at 4 days above 25000 nM.
Compound `C[C@@H](NS(=O)(=O)c1cn(C)c(C(=O)Nc2ccccn2)c1Cl)C(F)(F)F` [Compound 15, 3-chloro-1-methyl-N-(2-pyridyl)-4-[[(1R)-2,2,2-trifluoro-1-methyl-ethyl]sulfamoyl]pyrrole-2-carboxamide] came in with a melting point of 195.2 °C. Also, in data set [2], the EC50 was above 1000 nM. In data set [3], the concentration for a half-maximal effect (EC50) was above 1000 nM. Moreover, the CC50 at 4 days in data set [4] was above 25000 nM.
As for `Cc1nccc(NC(=O)c2c(Cl)c(S(=O)(=O)N[C@H](C)C(F)(F)F)cn2C)c1F` [Compound 14, 3-chloro-N-(3-fluoro-2-methyl-4-pyridyl)-1-methyl-4-[[(1R)-2,2,2-trifluoro-1-methyl-ethyl]sulfamoyl]pyrrole-2-carboxamide], the melting point came to 197.8 °C. In data set [2], the EC50 stood at 60 nM. In data set [3], the midpoint of the response, the EC50, lay at 120 nM. The same compound yielded a CC50 at 4 days in data set [4] above 25000 nM.
`Cc1nc(NC(=O)c2c(Cl)c(S(=O)(=O)N[C@H](C)C(F)(F)F)cn2C)ccc1F` [Compound 7, 3-Chloro-N-(5-fluoro-6-methylpyridin-2-yl)-1-methyl-4-{[(1R)-2,2,2-trifluoro-1-methylethyl]sulfamoyl}-1H-pyrrole-2-carboxamide] gave a melting point of 173.1 °C. Further, the CC50 at 4 days in data set [1] is above 25000 nM. In data set [2], this compound returned an EC50 of 90 nM. In data set [3], this compound came in with an EC50 of 250 nM. Moreover, in data set [4], the CC50 at 4 days was above 25000 nM.
Regarding `C[C@@H](NS(=O)(=O)c1cn(C)c(C(=O)Nc2ccnc(F)c2)c1Cl)C(F)(F)F` [Compound 11, 3-Chloro-N-(2-fluoropyridin-4-yl)-1-methyl-4-{[(1R)-2,2,2-trifluoro-1-methylethyl]sulfamoyl}-1H-pyrrole-2-carboxamide], the melting point is 218.1 °C. For the same compound, a half-maximal response in data set [2] (EC50) required 20 nM. This compound displayed an EC50 in data set [3] of 60 nM. Besides, the CC50 at 4 days in data set [4] was above 25000 nM.
Compound `C[C@@H](NS(=O)(=O)c1cn(C)c(C(=O)Nc2ccnc(C#N)c2)c1Cl)C(F)(F)F` [Compound 9, 3-Chloro-N-(2-cyanopyridin-4-yl)-1-methyl-4-{[(1R)-2,2,2-trifluoro-1-methylethyl]sulfamoyl}-1H-pyrrole-2-carboxamide] returned a melting point of 190.8 °C. This compound also showed a CC50 at 4 days in data set [1] above 25000 nM. The EC50 in data set [2] stood at 20 nM. In data set [3], this compound returned a concentration for a half-maximal effect (EC50) of 40 nM. This compound also gave a CC50 at 4 days in data set [4] above 25000 nM.
Take `C[C@@H](NS(=O)(=O)c1cn(C)c(C(=O)Nc2ccncc2)c1Cl)C(F)(F)F` [Compound 16, 3-chloro-1-methyl-N-(4-pyridyl)-4-[[(1R)-2,2,2-trifluoro-1-methyl-ethyl]sulfamoyl]pyrrole-2-carboxamide]: the melting point stood at 259.3 °C. In data set [2], this compound came in with an EC50 of 400 nM. The response in data set [3] was half-maximal at 280 nM (EC50). The compound further registered a 50% cytotoxic concentration (CC50) at 4 days in data set [4] above 25000 nM.
As to `C[C@@H](NS(=O)(=O)c1cn(C)c(C(=O)Nc2ccnc(Br)c2)c1F)C(F)(F)F` [Compound 23, N-(2-bromo-4-pyridyl)-3-fluoro-1-methyl-4-[[(1R)-2,2,2-trifluoro-1-methyl-ethyl]sulfamoyl]pyrrole-2-carboxamide], the cytotoxic concentration (CC50) at 4 days in data set [1] and in data set [4] was above 25000 nM in each case. Besides, the EC50 in data set [2] and in data set [3] was 10 nM each time.
As for `Cc1cc(NC(=O)c2c(Cl)c(S(=O)(=O)N[C@H](C)C(F)(F)F)cn2C)ccn1` [Compound 8, 3-Chloro-1-methyl-N-(2-methylpyridin-4-yl)-4-{[(1R)-2,2,2-trifluoro-1-methylethyl]sulfamoyl}-1H-pyrrole-2-carboxamide], the melting point came out at 203.5 °C. Moreover, the concentration giving a half-maximal response (EC50) in data set [2] was found to be 90 nM. In data set [3], a half-maximal response (EC50) required 170 nM. In data set [4], this compound displayed a CC50 at 4 days above 25000 nM.
Taken in the same sequence, the figures for `C[C@@H](NS(=O)(=O)c1cn(C)c(C(=O)Nc2cccnc2)c1Cl)C(F)(F)F` [Compound 17, 3-chloro-1-methyl-N-(3-pyridyl)-4-[[(1R)-2,2,2-trifluoro-1-methyl-ethyl]sulfamoyl]pyrrole-2-carboxamide] were 196.6 °C, 750 nM, 530 nM and above 25000 nM.

For orientation: CC50 means the concentration giving 50% cytotoxicity. A high value points to better tolerance by the cells. A word on the melting point: it is the temperature of the solid-liquid transition. What is called EC50 is the concentration needed to bring the measured effect to its halfway point.
